Data as given in publication PMC3873281, “Discovery and Preclinical Characterization of Novel Small Molecule TRK and ROS1 Tyrosine Kinase Inhibitors for the Treatment of Cancer and Inflammation” (PLoS ONE, 2013).
pIC50: −log10 of the molar value. Where two headings read alike, the source gives them in different places.

Assays:
[1] = system: HCC78 cells; test: Cell cycle analysis of HCC78 cells, flow cytometry; type: cell-based; settings: 1 µM
Experimental: (§1) Adherent cells were plated at 10,000 cells per well in 96-well plates in respective medium. […] For cell cycle analysis, cells were plated in 6 well plates and treated for the indicated time points. Cells were fixed, stained with propidium iodide, and distribution in different phases of cell cycle was evaluated using flow cytometry.
(§2) Protein was extracted and immunoblotted with phospho-ROS1 and total ROS1 antibodies. C. […] Ba/F3 cells stably transfected with vector or FIG-ROS1 were plated in equal numbers and growth of the cells after 3 days was measured by SRB assay (F).

[2] = system: HCC78 lung cancer cells; test: HCC78 lung carcinoma cell growth, SRB assay; type: cell-based; settings: Homo sapiens, HCC78, 144 h, read-out: IC50, proliferation of HCC78 cells
Experimental: as §1, §2

[3] = system: NIH3T3:FIG-ROS1 (S) cells; test: NIH3T3:FIG-ROS1 (S) cell proliferation, SRB assay; type: cell-based
Experimental: as §1, §2

[4] = system: FIG-ROS1; test: Phosphorylation of ROS1 fused to FIG in NIH3T3 cells, Western blotting; type: cell-based; settings: 3 days
Experimental: as §2

[5] = system: NIH3T3:FIG-ROS1 (S) xenograft
Experimental: Xenograft experiments were performed in nude mice as previously described. Briefly, a mixture of cells suspended in 0.0375 mL RPMI+10% FBS and 0.0625 mL Matrigel was injected s.c. into the hind left flank of each mouse.
Tumor volumes (A) and body weight (C) were measured biweekly. After sacrifice, tumor weights (B) were recorded and the amount of drug in serum and tumors were quantified using LC-MS/MS (D). *-significant at p<0.01; **-significant at p<0.001.

[6] = system: croton oil-induced dermatitis; test: Croton oil-induced atopic dermatitis; settings: s.c., twice, 16 hrs and 2 hrs before croton oil
[7] = system: MMP-3; test: PMA- or NGF-induced MMP-3 expression in PC12 cells, realtime PCR; type: cell-based
Experimental: RNA was isolated using the Cells-to-Ct kit and realtime PCR was performed using TaqMan primers and probes on the ABI 7900 (Life Technologies). cDNA array experiments were conducted using TaqMan primers and probes on the ABI 7900 PCR machine.
Figure 3 GTx-186 inhibits inflammation in vitro. Cells were serum starved for 2 days, pre-treated with indicated concentrations of GTx-186 for 30 min and treated with growth factors or cytokines for 12–16 hrs. RNA was extracted, cDNA synthesized, and expression of inflammatory genes were measured by realtime PCR using Taqman primer and probes. All experiments were performed in triplicate and repeated at least three times.

[8] = system: carrageenan-induced air-pouch inflammation; test: Carrageenan-induced air pouch inflammation model; type: in vivo, Sprague Dawley rats; settings: GTx-186 40 mg/kg; indomethacin 30 mg/kg s.c.
Experimental: Cytokine arrays were obtained from Ray Biotech (Norcross, GA) and arrays were processed according to manufacturer’s instructions. Briefly, arrays were incubated overnight with equal volume of air pouch exudates, washed, and incubated with secondary antibodies before developing using enhanced chemiluminescence.
Air was injected in the flanks of Sprague Dawley rats four days (20 mL) and two days (10 mL) before injection of carrageenan (1 mL of 2% carrageenan) in the pouch. Six hours after carrageenan administration, animals were sacrificed, 5 mL saline was injected into the pouch, pouch exudates were collected and the number of leukocytes and macrophages infiltrated into the pouch were counted under a microscope.
Figure 5 GTx-186 inhibits carrageenan-induced air-pouch inflammation in rats. A–C. A pouch was created subcutaneously in one flank of rats (n = 3) by injecting 20 ml air four days before and 10 ml air two days before treatment. […] Six hours after carrageenan administration, the animals were sacrificed, 5 ml saline was injected into pouch to flush the pouch fluid and the number of leukocytes and macrophages infiltrated into the pouch were counted under a microscope. TNF-α was measured using an ELISA in the pouch exudates from the experiment in panel B. (C). D. Effect of GTx-186 on inflammatory cytokines in carrageenan-induced air-pouch inflammation was measured in the pouch exudates using a cytokine array. Key cytokines were quantified and expressed as bar graphs on the right. […] 186-GTx-186; Indom-Indomethacin; Dex-Dexamethasone; TNF-Tumor Necrosis Factor; IL-Interleukin; CINC-Cytokine-Induced Neutrophil-Chemoattractant protein.

[9] = daily, GTx-186 20 mg/kg/day i.v., crizotinib 75 mg/kg p.o.

C[C@@H](Oc1cc(-c2cnn(C3CCNCC3)c2)cnc1N)c1c(Cl)ccc(F)c1Cl [crizotinib]
time of treatment at which cells were arrested in G0/G1 phase [1]: 6 days | pIC50 [2]: 6.31 | pIC50 ([3]; 72 h, read-out: IC50, proliferation of NIH3T3:FIG-ROS1 (S), 3 days): 7.62 | pIC50 ([3]; read-out: IC50, proliferation of NIH3T3:FIG-ROS1 (S), 3 days): 7.59 | phosphorylation of ROS1 fused to FIG [4]: extremely effective in inhibiting | tumor growth inhibition ([5]; crizotinib 75 mg/kg p.o. daily): 90% | tumor growth (tumor volume) [5, 9]: significantly reduced | tumor weight [5, 9]: significantly reduced | body weight, visible toxicity ([5]; mouse, in vivo): without affecting body weight

C[C@@H]1C[C@H]2[C@@H]3CCC4=CC(=O)C=C[C@]4(C)[C@@]3(F)[C@@H](O)C[C@]2(C)[C@@]1(O)C(=O)CO [dexamethasone]
expression of inflammatory pathway genes, including NGF, in ear punches [6]: markedly inhibited | MMP-3 expression induced by PMA [7]: inhibited

COc1ccc2c(c1)c(CC(=O)O)c(C)n2C(=O)c1ccc(Cl)cc1 [indomethacin]
TNF-α levels in pouch exudates after carrageenan (ELISA, cytokine array) [8]: effectively inhibited | carrageenan-induced CINC-1, CINC-2, IL-6, and LIX in pouch exudates (cytokine array) [8]: only GTx-186 inhibited | carrageenan-induced CINC-3, TIMP-1, PDGFa, MMP-8, and MCP-1 in pouch exudates (cytokine array) [8]: neither GTx-186 nor indomethacin inhibited | carrageenan-induced TNF-α, IL-1β, fractalkine, IL-13, and leptin in pouch exudates (cytokine array) [8]: inhibited
